These results are taken from patent EP0403251A2, “Monokine activity interference” (SMITHKLINE BEECHAM CORPORATION, priority 1989, dated 1990).

The test system of assay [1] is TNF. Nature of the assay: In vivo endotoxin shock models (P. acnes model and/or LPS-GAL model, not specified which). More on the design: species or system mice. The note with it: for in vivo TNF levels / protection from endotoxic induced shock: one or both of the in vivo assays (P. acnes / LPS-GAL). The method, then: Two models of endotoxin shock have been utilized to determine in vivo TNF activity and are described below. The actual protocoll used in the models is described in Utility Model Examples A and B set out below, i.e. P. Acnes model and LPS-GAL model.
(§1) Briefly, D-gal ([…]) sensitizes various strains of mice to the lethal effects of endotoxin. The administration of D-gal (300-500mg/kg) intra-venously (i.v.) sensitizes the mice to doses of Lipopolysaccharide(LPS ) as low as 0.1 mg. Briefly, male C57BL/6 mice, obtained from Charles River Laboratories (Stone Ridge, New York, USA) of 6-12 weeks of age were injected i.v. with 0.1 mg of LPS from Salmonella typhosa (Difco Laboratories, Detroit, Michigan, USA) admixed with D(+)-gal (Sigma; 500 mg/kg) in 0.20-0.25 ml pyrogen-free saline. Compounds to be tested were administered at various times prior to or following the iv. injection of LPS/D-gal.
This model is a modification of the previously described protocol for the in vivo induction of TNF as described in Haranaka et al., Cancer Immunol Immunother, 18:87-90, (1984). Treatment with Proprionibacterium Acnes (P. acnes) (1mg/animal i.p.) renders mice susceptible to the lethal effects of LPS injected 10 days later.
P. acnes was purchased from Burroughs Wellcome (Triangle Park, North Carolina, USA), and […]of the heat-killed bacteria was administered in 0.5 ml pyrogen-free saline by intraperitoneal (i.p.) injection to male C57BL/6 mice, obtained from Charles River Laboratories (Stone Ridge, New York, USA) of 6-12 weeks of age. Ten days later, the mice were injected iv. with 1 mg LPS in 0.25 ml saline. Compounds to be tested were administered at various times prior to or following the injection of LPS. The survival of animals was monitored for 1 week.
(§2) Plasma levels of TNF were measured using a modification of the basic sandwich ELISA method described in Winston et al., Current Protocols in Molecular Biology, Pg. 11.2.1, Ausubel et al., Ed. (1987) John Wiley and Sons, New York, USA. The Elisa employed a hampster monoclonal anti-mouse TNF (Genzyme, Boston, MA, USA) as the capture antibody and a polyclonal rabbit anti-murine TNF (Genzyme, Boston, MA, USA) as the detecting antibody. TNF levels in rat samples were calculated from a standard curve genereated with recombinant murine TNF (Genzyme, Boston, MA, USA).

For assay [2], the system named is TNFa production by monocytes. The conditions noted are these: Lee et al. 1988 and Badger et al. 1989; cited from earlier work.
The test system of assay [3] is TNF. Nature of the assay: Endotoxin shock in D-gal-sensitized mice (LPS-GAL model), TNF levels by ELISA and survival. The class given is in vivo. On the procedure: as §1, with “The protocol used to test the compound of the method of the subject invention was essentially as has been described in Galanos et al., Proc. Nat'l Acad. Sci USA, 76:5939-43 (1979) whose disclosure is herein incorporated by reference. Briefly, D-gal” for “Briefly, D-gal”, “of LPS/D-gal. In this model, the control animals usually die 5-6 hr. following the injection of LPS, although on occasion deaths are seen between 24 and 48 hr.” for “of LPS/D-gal.”
as §2, with “USA). TNF levels determined by ELISA correlated with levels detected by the L929 bioassay of Ruff et. al., J. Immunol. 125:1671-1677 (1980), with 1 Unit of activity in the bioassay corresponding to 70 picograms (pg) of TNF in the ELISA. The ELISA detected levels of TNF down to 25 pg/ml.” for “USA).”
Background: In an ELISA, binding on a coated surface is turned into a signal by an enzyme label.

Assay [4] relates to IL-1 production by bacterial lipopolysaccharide (LPS)-stimulated human monocytes. The note with it: cited from earlier work.
A further assay has as its system cyclooxygenase. The note with it: Lee et al. 1988; cited from earlier work.
The target of a further assay is T1, 5-lipoxygenase (Homo sapiens, UniProt P09917).
T1 sequence (P09917 1-674): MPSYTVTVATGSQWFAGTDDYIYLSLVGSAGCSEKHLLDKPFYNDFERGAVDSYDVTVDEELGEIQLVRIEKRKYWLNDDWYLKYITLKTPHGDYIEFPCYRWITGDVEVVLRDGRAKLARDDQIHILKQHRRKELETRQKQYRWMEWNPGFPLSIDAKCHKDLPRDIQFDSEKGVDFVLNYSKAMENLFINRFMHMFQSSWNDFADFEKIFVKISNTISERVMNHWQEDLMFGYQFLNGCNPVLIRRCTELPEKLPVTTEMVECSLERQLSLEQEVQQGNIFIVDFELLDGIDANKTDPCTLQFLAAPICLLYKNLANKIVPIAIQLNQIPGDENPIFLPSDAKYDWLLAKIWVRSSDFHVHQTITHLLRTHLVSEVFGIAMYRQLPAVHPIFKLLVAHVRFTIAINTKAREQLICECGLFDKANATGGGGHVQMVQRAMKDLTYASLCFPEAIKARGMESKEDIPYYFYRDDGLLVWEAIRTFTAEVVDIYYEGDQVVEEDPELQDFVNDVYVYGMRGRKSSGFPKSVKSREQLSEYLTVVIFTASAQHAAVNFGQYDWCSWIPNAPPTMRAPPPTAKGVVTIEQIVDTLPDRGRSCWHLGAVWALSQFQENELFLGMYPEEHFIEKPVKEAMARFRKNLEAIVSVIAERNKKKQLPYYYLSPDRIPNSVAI
The conditions noted are these: Lee et al. 1988; cited from earlier work.

Another assay relates to TNFa. The note with it: Badger et al. 1989, cited from earlier work.
Assay [5] concerns TNF Production by Human Monocytes. Nature of the assay: Inhibitory effect on in vitro LPS induced TNF production by human monocytes (ELISA). It counts as cell-based. The note with it: Monocyte; LPS (50 ng/ml) induced TNF, human peripheral blood monocytes, compound added 1 hr before LPS, 24 hours; NA - not active; read-out: IC₅₀. The method, then: The effects of the compounds enumerated above on the in vitro production of TNF by human monocytes was examined using the following protocol..
Bacterial lipopolysaccharide (LPS) was used to induce TNF production by human peripheral blood monocytes. TNF activity was measured by a modification of Winston et al., ELISA, described below. Human peripheral blood monocytes were isolated and purified from either fresh blood preparations from volunteer donors, from blood bank buffy coats, or from plateletpheresis residues according to the procedure of Colotta et al., J. Immunol., 132, 936 (1984). 1 X 10⁶ of such monocytes were plated in 24-well plates at a concentration of 1-2 million/ml per well. The cells were allowed to adhere for 2 hours, after which time non-adherent cells were removed by gentle washing. Test compounds were then added to the cells for 1 hour (hr) before the addition of LPS (50 ng/ml), and the cultures were incubated at 37 °C for an additional 24 hours. At the end of the incubation period, culture supernatants were removed and clarified of cells and all debris. Culture supernatants were immediately assayed for TNF levels in the manner described below.
Levels of TNF were mesured using a modification of the basic sandwich ELISA assay method described in Winston et al., Current Protocols in Molecular Biology. Page 11.2.1, Ausubel et al., Ed. (1987) John Wiley and Sons, New York, USA The Elisa employes a murine monoclonal anti-human TNF antibody, described below, as the capture antibody and a polyclonal rabbit anti-human TNF , described below, as the second antibody. For detection, a peroxidase-conjgated goat anti-rabbit antibody (Boehringer Mannheim, Indianopolis, Indiana, USA, Catalog #605222) was added followed by a substrate for peroxidase (1mg/ml orthophenylenediamine with 0.1% urea peroxide). TNF levels in samples were calculated from a standard curve genereated with recombinant human TNF produced in E. Coli (obtained from SmithKline Beecham Pharmaceuticals, King of Prussisa, PA, USA).
Monoclonal antibodies to human TNF were prepared from spleens of BALB/c mice immunized with recombinant human TNF using a modification of the method of Kohler and Millstein, Nature 256: 495(1975), the entire disclosure of which is hereby incorporated by reference. Polyclonal rabbit anti-human TNF antibodies were prepared by repeated immunization of New Zeland White (NZW) rabbits with recombinant human TNF emulsified in complete Freund's adjuvant (DIFCO, IL., USA).

SMILES strings stand for the structures. pIC50: −log10 of the molar value. Read-outs that look alike come from different tables or passages of the source.

Regarding `O=S1(=O)CCn2c1nc(-c1ccc(F)cc1)c2-c1ccncc1` [6-(4-Fluorophenyl)-5-(4-pyridyl)-2,3-dihydroimidazo[2,1-b]thiazole-1,1-dioxide], in the assay on TNF [1], the “in vivo TNF levels” value is “inhibited in vivo TNF levels” and the “protection from endotoxic induced shock” value is given as “protected the animals from endotoxic induced shock”.
With `Fc1ccc(-c2nc3n(c2-c2ccncc2)CCS3)cc1` [Compound 1, 6-(4-Flurophenyl)-5-(4′pyridyl)-2,3-dihydroimidazo[2,1-b]-thiazole], in assay [2], the “TNFa production by monocytes” value is given as “inhibit”. Besides, in the assay with TNF [3] (LPS-GAL Model, 100 mg/kg, Figure 4), the “reduction of serum TNF levels” value is on record as “reduction of serum TNF levels”. In addition, the survival rate in the assay on TNF [3] (LPS-GAL model, animals with endotoxic shock, Figure 5, control group 30%) amounted to 100%. Besides, the TNF production result with TNF [3] (LPS-Gal mouse model, i.p. injection, Figure 3) was “inhibitis TNF production”. Further, the IL-1 production entry is “inhibit” in assay [4] (Lee et al. 1988, listed as 5-(4-pyridyl)-6(4-fluorophenyl)-2,3-dihydroimidazo(2,1-B)-thiazole) and “potent inhibitor” in assay [4] (Lee et al. 1988, listed as 5-(4-pyridyl)-6(4-fluorophenyl)-2,3-dihydroimidazo(2,1-B)thiazole). The cyclooxygenase-mediated arachidonate metabolism result in the assay on cyclooxygenase was “inhibits”. Also, the 5-lipoxygenase-mediated arachidonate metabolism result at 5-lipoxygenase is listed as “inhibits”. In addition, the “circulating levels of TNFa” value in the assay with TNFa (mouse models of LPS-induced shock) is “inhibition of circulating levels of TNFa”. Also, the “protection against LPS-induced shock” value in the assay on TNFa (two mouse models) was “protection”. The “protection from the lethal effects of endotoxin shock” value in the assay on TNF [1] (P. Acnes model and LPS-GAL model) is “protection from the lethal effects of endotoxin shock”. In the assay with TNF [1], the “in vivo TNF levels” value is on record as “reduce the in vivo level of tumor necrosis factor (TNF)”.
For the compound `CSc1ccc(-c2nc3n(c2-c2ccncc2)CCC3)cc1` [Compound 3, 2-(4-methylthiophenyl)-3-(4-pyridyl)-6,7-dihydro-[5H]-pyrrolo[1,2-a]-imidazole], the pIC50 in assay [5] was 6.00.
`COc1ccc(-c2nc3n(c2-c2ccncc2)CCC3O)cc1` (centres unmarked) [Compound 8, 5,6-dihydro-2-(4-methoxyphenyl)-3-(4-pyridinyl)-[7H]-pyrrolo[1,2-a]-imidazole-7-ol]: in assay [5], the pIC50 is 6.00.
Take `CC(=O)OCSc1ccc(-c2nc3n(c2-c2ccncc2)CCC3)cc1` [Compound 9, 2-(4-Acetoxymethylthiophenyl)3-(4-pyridyl)-6,7-dihydro[5H]pyrrolo-[1,2-a]-imidazole]: the pIC50 in assay [5] is 5.52.
For the compound `COc1ccc(-c2nc3n(c2-c2ccncc2)CCC3)cc1` [Compound 10, 2-(4-Methoxyphenyl)-3-(4-pyridyl)-6,7-dihydro-[5H]-pyrrolo-[1,2-a]imidazole], the pIC50 in assay [5] is 6.30.
Turning to `O=S1(=O)CCn2c1nc(-c1ccc(F)cc1)c2-c1ccncc1` [Compound 14, 6-(4-Fluorophenyl)-5-(4-pyridyl)-2,3-dihydroimidazo[2,1-b]thiazole-1,1-dioxide], in assay [5], the pIC50 was 5.05.
Consider `CC[S+]([O-])c1ccc(-c2nc3n(c2-c2ccncc2)CCC3)cc1` (centres unmarked) [Compound 15, 2-(4-Ethylsulfinylphenyl)-3-(4-pyridyl)-6,7-dihydro[5H]pyrrolo[1,2-a]imidazole], for which the pIC50 in assay [5] was 5.15. Besides, in the assay with TNF [1], the “in vivo TNF levels” value was “inhibited in vivo TNF levels” and the “protection from endotoxic induced shock” value is “protected the animals from endotoxic induced shock”.
With `CSc1ccc(-c2nc3n(c2-c2ccnc(C)c2)CCC3)cc1` [Compound 16, 2-(4-Methylthiophenyl)-3-[4-(2-methylpyridyl)]-6,7-dihydro[5H]pyrrolo-[1,2-a]imidazole], the “in vivo TNF levels” value in the assay on TNF [1] is recorded as “inhibited in vivo TNF levels”.
